According to paper PMC8345219 (Cancers, 2021):
pEC50: −log10 of the molar value. “Also recorded” adds a separate entry of the source. *1 amine or outer side, *2 acyl side, *3 side chain or, on linkers, in order; H or OH if unused. Where a SMILES comes first, the peptide text is derived from it. Bridges are numbered along the chain shown (N, C = ends). Primed or numbered codes have the meaning given here. Where no end group is shown, it is not given here. [ ]: non-standard residue; d: D form. The star is where a group is joined. Tam = 6-carboxy tetramethylrhodamine, CN(C)c1ccc2c(-c3cc(C(=O)*)ccc3C(=O)[O-])c3ccc(N(C)C)cc3[o+]c2c1; X1 = CN(C)c1ccc2c(c1)Oc1cc(N(C)C)ccc1C21OC(=O)c2ccc(C(=O)*)cc21; EG(4) = polyethylene glycol with four ethylene glycol units; PEG4 = NCCOCCOCCOCCOCCC(=O)O; d(hCys) = N[C@H](CCS)C(=O)O; hCys = N[C@@H](CCS)C(=O)O; CH2 = C([*:1])[*:2]

Assays:
[1] = Investigation of plasma stability (Tam-labeled peptides, RP-HPLC); type: in vitro ADME; conditions: Tam-modified peptides, 10^−5 M in human blood plasma, 37 °C; one-phase decay
Method: Investigation of peptide stability in blood plasma was carried out as described previously [22]. Tam-labeled peptides were dissolved in human blood plasma at a concentration of 10^−5 M and incubated at 37 °C and 250 rpm. Samples taken at the respective time points were added to a solution of 0.1% SDS in ACN/EtOH (1:1). After incubation at −20 °C for 20 min, the supernatant was transferred to a new tube and incubated again at −20 °C for at least 3 h. […] Peaks were integrated, and the peak containing the intact peptide was normalized to the sample taken at t = 0 min (100%). Plasma half-life was determined using one-phase decay in Prism 5 (GraphPad, San Diego, CA, USA).

hCMKLR1 = biological target: T1, hCMKLR1 (Homo sapiens, UniProt Q99788); assay: Calcium flux assay in COS-7 cells transfected with hCMKLR1_eYFP_GαΔ6qi4myr
T1 sequence (Q99788 1-373): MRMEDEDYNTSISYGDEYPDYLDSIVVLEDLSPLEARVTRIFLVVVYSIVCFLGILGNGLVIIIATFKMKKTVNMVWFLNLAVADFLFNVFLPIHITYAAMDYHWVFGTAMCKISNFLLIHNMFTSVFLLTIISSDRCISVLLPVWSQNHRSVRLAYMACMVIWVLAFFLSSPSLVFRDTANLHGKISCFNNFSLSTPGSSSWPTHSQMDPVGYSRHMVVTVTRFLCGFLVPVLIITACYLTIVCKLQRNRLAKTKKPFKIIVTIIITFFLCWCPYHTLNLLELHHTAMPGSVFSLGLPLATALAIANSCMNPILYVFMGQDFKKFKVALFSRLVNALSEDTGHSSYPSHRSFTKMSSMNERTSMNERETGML
Method: COS-7 cells were transfected in 75 cm^2 cell culture flasks with 12 µg of the hCMKLR1_eYFP_GαΔ6qi4myr_pV2 plasmid overnight using Metafectene Pro. Transfected cells were seeded in 96 well plates (100 µL cell suspension in DMEM + 10%FBS/well) and incubated overnight. […] All experiments were performed in triplicates, each experiment was repeated at least twice. Nonlinear regression was calculated using GraphPad Prism 5.

[2] = system: HEK293 cells stably transfected with CMKLR1-eYFP; assay: Quantification of peptide uptake using a High Content Imager; type: cell-based; conditions: 1 µM Tam-labeled peptide, up to 1 h
Method: Cells were stimulated with 1 µM of the respective, Tam-labeled peptide for the specified periods, followed by washing with acidic wash (50 mM glycine, 100 mM NaCl, pH 3) in HBSS. Microscopy was carried out in OptiMEM using an ImageXpress Micro Confocal High-Content Imaging System (Molecular Devices, San José, CA, USA), using the appropriate filters for the respective fluorophores (Table 1). The fluorescence intensity per cell was automatically analyzed for each well by a module detecting the nuclei (5–30 µm in diameter and 100 gray levels above background) and the granules by Tam-peptide fluorescence (2–5 µm in diameter, 70 gray levels above background).

[3] = system: HEK293 cells transiently transfected with CMKLR1-eYFP; assay: Live cell fluorescence microscopy of peptide uptake; type: cell-based; conditions: 1 µM Tam-labeled peptide, 60 min
Method: For fluorescence microscopy, HEK293 cells were seeded into Ibidi 15 µ-slides (140,000 cells/200 µL/well) coated with poly D-lysine and grown overnight. Next, cells were transfected with 900 ng CMKLR1-eYFP. Transfection was achieved using Lipofectamine 2000 according to the manufacturer’s protocol. One day post-transfection, fluorescence microscopy experiments were performed on an AxioVision Observer.Z1 microscope equipped with an ApoTome imaging system (Zeiss, Jena, Germany). […] To observe peptide uptake, cells were stimulated with 1 µM Tam-chemerin-9 in OptiMEM, which was replaced with acidic wash (50 mM glycine, 100 mM NaCl, pH 3) in HBSS after the indicated time, followed by two washing steps with OptiMEM. Microscopy was carried out in OptiMEM.

[4] = system: HEK293 cells stably transfected with CMKLR1-eYFP; assay: Resazurin-based cell viability assay, HEK293-CMKLR1; conditions: HEK293-CMKLR1
Method: (§1) HEK293 cells stably transfected with CMKLR1-eYFP, empty HEK293 cells (15,000 cells in 100 µL suspension/well), or HMEC-1 cells (5000 cells in 100 µL suspension/well) in their respective cell culture media were seeded in 96 well plates (coated with poly D-lysine for HEK cells) and incubated at standard conditions overnight. Afterward, cells were incubated with peptides or MTX dissolved in cell culture media, and a medium without peptides was used as a control. […] Ethanol or media was removed and a 50 µL resazurin-based in vitro toxicology assay kit (Sigma-Aldrich, St. Lous, MO, USA) in cell culture media (1:10) was added to each well. After 1 h incubation time, the conversion of the resazurin was detected by measuring the fluorescence intensity at λem = 590 nm. All experiments were performed in duplicates and each experiment was repeated at least three times. Nonlinear regression was calculated using GraphPad Prism 5, curves were normalized to untreated and ethanol-treated cells.

[5] = system: untransfected HEK293 cells; assay: Resazurin-based cell viability assay, untransfected HEK293; conditions: HEK293 cells devoid of CMKLR1, 72 h
Method: as §1

human blood plasma = conditions: 37 °C, up to 24 h
[6] = biological target: chemokine-like receptor 1 fused to eYFP (hCMKLR1-eYFP) (human) (UniProt Q99788)
[7] = biological target: chemokine-like receptor 1 fused to eYFP (hCMKLR1-eYFP) (human) (UniProt Q99788); remark: listed apart in the source
[8] = EC50, Ca^2+ flux, normalized to chemerin-9 curve

`CN(C)c1ccc2c(c1)Oc1cc(N(C)C)ccc1C21OC(=O)c2ccc(C(=O)N[C@@H](Cc3ccc(O)cc3)C(=O)N[C@@H](Cc3ccccc3)C(=O)N3CCC[C@H]3C(=O)N[C@@H]3CSSC[C@@H](C(=O)N[C@@H](Cc4ccccc4)C(=O)N[C@@H](CO)C(=O)O)NC(=O)[C@H](Cc4ccccc4)NC(=O)[C@H](CCC(N)=O)NC3=O)cc21` [Compound 2T, Tam-YFP(cQFCFS)] (X1-YFP[dC]QFCFS-OH; disulfide 4-7) showed a half-life [1] of 0.75 h.
With `CN(C)c1ccc2c(c1)Oc1cc(N(C)C)ccc1C21OC(=O)c2ccc(C(=O)N[C@@H](Cc3ccc(O)cc3)C(=O)N[C@@H](Cc3ccccc3)C(=O)N3CCC[C@H]3C(=O)N[C@@H]3CSCSC[C@@H](C(=O)N[C@@H](Cc4ccccc4)C(=O)N[C@@H](CO)C(=O)O)NC(=O)[C@H](Cc4ccccc4)NC(=O)[C@H](CCC(N)=O)NC3=O)cc21` [Compound 3T, Tam-YFP(c(CH2)QFCFS)] (X1-YFP[dC]QFCFS-OH; linker 4-7 via CH2) the half-life [1] was 0.3 h.
In the case of `C[C@@H]1NC(=O)[C@H](Cc2ccccc2)NC(=O)[C@H](CCC(N)=O)NC(=O)[C@H](NC(=O)[C@@H]2CCCN2C(=O)[C@H](Cc2ccccc2)NC(=O)[C@@H](N)Cc2ccc(O)cc2)CSSC[C@@H](C(=O)O)NC(=O)[C@H](Cc2ccccc2)NC1=O` [Compound 4, YFP(cQFAFC)] (H-YFP[dC]QFAFC-OH; disulfide 4-9), the pEC50 (hCMKLR1; pEC50 ± SEM, Ca^2+ flux) was 7.19.
Compound `C[C@@H]1NC(=O)[C@H](Cc2ccccc2)NC(=O)[C@H](CCC(N)=O)NC(=O)[C@H](NC(=O)[C@@H]2CCCN2C(=O)[C@H](Cc2ccccc2)NC(=O)[C@H](Cc2ccc(O)cc2)NC(=O)c2ccc3c(c2)C2(OC3=O)c3ccc(N(C)C)cc3Oc3cc(N(C)C)ccc32)CSSC[C@@H](C(=O)O)NC(=O)[C@H](Cc2ccccc2)NC1=O` [Compound 4T, Tam-YFP(cQFAFC)] (X1-YFP[dC]QFAFC-OH; disulfide 4-9) has a half-life [1] of over 24 h.
Compound `C[C@@H]1NC(=O)[C@H](Cc2ccccc2)NC(=O)[C@H](CCC(N)=O)NC(=O)[C@H](NC(=O)[C@@H]2CCCN2C(=O)[C@H](Cc2ccccc2)NC(=O)[C@@H](N)Cc2ccc(O)cc2)CSCSC[C@@H](C(=O)O)NC(=O)[C@H](Cc2ccccc2)NC1=O` [Compound 5, YFP(c(CH2)QFAFC)] (H-YFP[dC]QFAFC-OH; linker 4-9 via CH2) has a pEC50 (hCMKLR1; [8]) of 7.89 and a pEC50 (hCMKLR1; pEC50 ± SEM, Ca^2+ flux) of 7.89.
In the case of `C[C@@H]1NC(=O)[C@H](Cc2ccccc2)NC(=O)[C@H](CCC(N)=O)NC(=O)[C@H](NC(=O)[C@@H]2CCCN2C(=O)[C@H](Cc2ccccc2)NC(=O)[C@H](Cc2ccc(O)cc2)NC(=O)c2ccc3c(c2)C2(OC3=O)c3ccc(N(C)C)cc3Oc3cc(N(C)C)ccc32)CSCSC[C@@H](C(=O)O)NC(=O)[C@H](Cc2ccccc2)NC1=O` [Compound 5T, Tam-YFP(c(CH2)QFAFC)] (X1-YFP[dC]QFAFC-OH; linker 4-9 via CH2), the half-life [1] was over 24 h.
Compound `C[C@@H]1NC(=O)[C@H](Cc2ccccc2)NC(=O)[C@H](CCC(N)=O)NC(=O)[C@H](NC(=O)[C@@H]2CCCN2C(=O)[C@H](Cc2ccccc2)NC(=O)[C@@H](N)Cc2ccc(O)cc2)CSCSCC[C@@H](C(=O)O)NC(=O)[C@H](Cc2ccccc2)NC1=O` [Compound 6, YFP(c(CH2)QFAFX)] (H-YFP[dC]QFAF[hCys]-OH; linker 4-9 via CH2) has a pEC50 (hCMKLR1; [8]) of 7.43 and a pEC50 (hCMKLR1; pEC50 ± SEM, Ca^2+ flux) of 7.43.
Work on `C[C@@H]1NC(=O)[C@H](Cc2ccccc2)NC(=O)[C@H](CCC(N)=O)NC(=O)[C@H](NC(=O)[C@@H]2CCCN2C(=O)[C@H](Cc2ccccc2)NC(=O)[C@H](Cc2ccc(O)cc2)NC(=O)c2ccc3c(c2)C2(OC3=O)c3ccc(N(C)C)cc3Oc3cc(N(C)C)ccc32)CSCSCC[C@@H](C(=O)O)NC(=O)[C@H](Cc2ccccc2)NC1=O` [Compound 6T, Tam-YFP(c(CH2)QFAFX)] (X1-YFP[dC]QFAF[hCys]-OH; linker 4-9 via CH2) yielded a half-life [1] of over 24 h.
`CN(C)c1ccc2c(c1)Oc1cc(N(C)C)ccc1C21OC(=O)c2ccc(C(=O)NCCCC[C@@H]3NC(=O)[C@H](Cc4ccccc4)NC(=O)[C@H](CCC(N)=O)NC(=O)[C@H](NC(=O)[C@@H]4CCCN4C(=O)[C@H](Cc4ccccc4)NC(=O)[C@@H](N)Cc4ccc(O)cc4)CSSC[C@@H](C(=O)O)NC(=O)[C@H](Cc4ccccc4)NC3=O)cc21` [Compound 7T, YFP(cQFK(Tam)FC)] (H-YFP[dC]QFK(X1)FC-OH; disulfide 4-9) gave a half-life [1] of under 0.2 h.
Work on `CN(C)c1ccc2c(c1)Oc1cc(N(C)C)ccc1C21OC(=O)c2ccc(C(=O)NCCCC[C@@H]3NC(=O)[C@H](Cc4ccccc4)NC(=O)[C@H](CCC(N)=O)NC(=O)[C@H](NC(=O)[C@@H]4CCCN4C(=O)[C@H](Cc4ccccc4)NC(=O)[C@H](N)Cc4ccc(O)cc4)CSSC[C@@H](C(=O)O)NC(=O)[C@H](Cc4ccccc4)NC3=O)cc21` [Compound 8T, yFP(cQFK(Tam)FC)] (H-[dY]FP[dC]QFK(X1)FC-OH; disulfide 4-9) yielded a half-life [1] of over 24 h.
With `C[C@@H]1NC(=O)[C@H](Cc2ccccc2)NC(=O)[C@H](CCC(N)=O)NC(=O)[C@H](NC(=O)[C@@H]2CCCN2C(=O)[C@H](Cc2ccccc2)NC(=O)[C@H](N)Cc2ccc(O)cc2)CSCSCC[C@@H](C(=O)O)NC(=O)[C@H](Cc2ccccc2)NC1=O` [Compound 10, yFP(c(CH2)QFAFX)] (H-[dY]FP[dC]QFAF[hCys]-OH; linker 4-9 via CH2) the pEC50 (hCMKLR1; [8]) was 7.55 and the pEC50 (hCMKLR1; pEC50 ± SEM, Ca^2+ flux) was 7.55.
For `C[C@@H]1NC(=O)[C@H](Cc2ccccc2)NC(=O)[C@H](CCC(N)=O)NC(=O)[C@H](NC(=O)[C@@H]2CCCN2C(=O)[C@H](Cc2ccccc2)NC(=O)[C@H](Cc2ccc(O)cc2)NC(=O)CCOCCOCCOCCOCCNC(=O)c2ccc3c(c2)C2(OC3=O)c3ccc(N(C)C)cc3Oc3cc(N(C)C)ccc32)CCSSC[C@@H](C(=O)O)NC(=O)[C@H](Cc2ccccc2)NC1=O` [Compound 12T, Tam-EG(4)-YFP(xQFAFC)] ({X1-PEG4}-YFP[d(hCys)]QFAFC-OH; disulfide 4-9), the “intracellular accumulation of Tam-fluorescence over time” value [2] was “comparable intracellular accumulation over time”, the “intracellular Tam-fluorescence (peptide uptake)” value [3] was “pronounced intracellular fluorescence is visible after 60 min of stimulation” and the half-life [1] was over 48 h.
In the case of Mtx-GFLGK(Ac)YFP(xQFAFC) [Compound 15], the “increase in toxicity compared to MTX itself” value [4] was “almost eightfold increase in toxicity” and the “toxicity (in words)” value [5] was “exerted no toxicity; also recorded: not toxic at concentrations up to 10 µM”.
With Tam-EG(4)-YFP(xQFAFC) the not cleaved (human blood plasma) was “not degraded in blood plasma for at least 24 h; t1/2 >48 h”.
In the case of “Tam-EG(4)-YFPGQFAAS ({Tam-EG(4)}-YFPGQFAAS) [Compound 13T, alanine-substituted Tam-labeled linear peptide, negative control]”, the “intracellular accumulation of Tam-fluorescence over time” value [2] was “did not accumulate in the cells”.
For Tam-YFP(c(CH2)QFAFC), the not cleaved (human blood plasma) was “same stability for 24 h; t1/2 >24 h”.
With Tam-YFP(c(CH2)QFAFX) the not cleaved (human blood plasma) was “same stability for 24 h; t1/2 >24 h”.
For “Tam-YFP(cQFAFC) (X1-YFP[dC]QFAFC-OH; disulfide 4-9)”, the not cleaved (human blood plasma) was “remained completely intact for the course of the experiment (24 h); t1/2 >24 h”.
Work on “methotrexate conjugate 15, Mtx-GFLGK(Ac)YFP(xQFAFC) (peptide)” yielded a toxicity in a resazurin-based cell viability assay, HEK293 cells stably transfected with CMKLR1-eYFP, 72 h, IC50 (no toxicity on HEK293 cells devoid of CMKLR1 up to 10 µM) [6] of 0.061 µM and a toxicity in a resazurin-based cell viability assay, HMEC-1 cells endogenously expressing CMKLR1, 72 h, IC50 [7] of 2 µM.
In the case of yFP(cQFK(Tam)FC), the not cleaved (human blood plasma) was “fully stable in blood plasma for 24 h; t1/2 >24 h”.
